From PMC6010127, “Sulfonamide inhibition studies of two β-carbonic anhydrases from the ascomycete fungus Sordaria macrospora, CAS1 and CAS2” (Journal of Enzyme Inhibition and Medicinal Chemistry, 2018)

Tests used:
CAS2 [1] = target: T1, CAS2 (Sordaria macrospora, UniProt C1L336); assay: stopped-flow CO2 hydration assay; type: biochemical; settings: read-out: KI^a (nM) / CAS2^c / β
T1 construct: recombinant, obtained in-house
T1 sequence (C1L336 54-284): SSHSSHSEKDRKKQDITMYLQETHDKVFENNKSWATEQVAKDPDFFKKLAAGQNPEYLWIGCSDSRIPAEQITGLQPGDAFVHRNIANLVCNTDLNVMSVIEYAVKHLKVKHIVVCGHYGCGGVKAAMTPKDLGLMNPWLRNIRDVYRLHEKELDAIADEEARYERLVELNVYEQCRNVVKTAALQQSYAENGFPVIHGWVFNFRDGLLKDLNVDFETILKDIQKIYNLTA

CAS1 [2] = target: T2, CAS1 (Sordaria macrospora, UniProt F7VW42); assay: stopped-flow CO2 hydration assay; type: biochemical
T2 construct: gene SMAC_03420; recombinant, obtained in-house
T2 sequence (F7VW42 1-234): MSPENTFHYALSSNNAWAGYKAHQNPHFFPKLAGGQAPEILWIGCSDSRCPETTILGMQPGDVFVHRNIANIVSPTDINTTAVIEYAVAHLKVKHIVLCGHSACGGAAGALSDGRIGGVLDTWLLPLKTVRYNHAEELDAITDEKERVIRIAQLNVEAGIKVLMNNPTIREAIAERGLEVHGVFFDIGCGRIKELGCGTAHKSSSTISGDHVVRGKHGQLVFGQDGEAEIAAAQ

CAS1 [3] = target: T2, CAS1; assay: biochemical; parameters: stopped-flow CO2 hydration assay, phenol red 557 nm, pH 8.3, 15 min preincubation; KI by Cheng-Prusoff; settings: read-out: KI^a (nM) / CAS1^c / β
Protocol: (§1) An Applied Photophysics stopped-flow instrument has been used for assaying the CA catalysed CO2 hydration activity. Phenol red (at a concentration of 0.2 mM) has been used as indicator, working at the absorbance maximum of 557 nm, with 20 mM TRIS (pH 8.3) as buffer, and 20 mM Na2SO4 (for maintaining constant the ionic strength), following the initial rates of the CA-catalysed CO2 hydration reaction for a period of 10–100 s. The CO2 concentrations ranged from 1.7 to 17 mM for the determination of the kinetic parameters and inhibition constants. For each inhibitor at least six traces of the initial 5–10% of the reaction have been used for determining the initial velocity. The uncatalysed rates were determined in the same manner and subtracted from the total observed rates. Stock solutions of inhibitor (0.1 mM) were prepared in distilled-deionized water and dilutions up to 0.01 nM were done thereafter with the assay buffer. Inhibitor and enzyme solutions were preincubated together for 15 min at room temperature prior to assay, in order to allow for the formation of the E–I complex. The inhibition constants were obtained by non-linear least-squares methods using PRISM 3 and the Cheng–Prusoff equation, as reported earlier, and represent the mean from at least three different determinations. All CA isofoms were recombinant ones obtained in-house as reported earlier[2]^,[9].

CAS2 [4] = target: T1, CAS2; assay: biochemical; parameters: stopped-flow CO2 hydration assay, phenol red 557 nm, pH 8.3, 15 min preincubation; KI by Cheng-Prusoff
Protocol: as §1, with “For each inhibitor at least six traces of the initial 5–10% of the reaction have been used for determining the initial velocity.” left out

[5] = read-out: KI^a (nM) / CAS1^c / β
[6] = read-out: KI^a (nM) / CAS2^c / β, inhibitor

SMILES	Ki (CAS2 [1])	Ki (CAS1 [3])	Ki (CAS2 [4])	further results
CCN[C@H]1CN(CCCOC)S(=O)(=O)c2sc(S(N)(=O)=O)cc21 [BRZ, brinzolamide]	739 nM			Ki (CAS1 [2]; [5]): 451 nM
NS(=O)(=O)c1nnc(NS(=O)(=O)c2ccccc2)s1 [BZA, benzolamide]	410 nM	2110 nM		
Cc1ccc(-c2cc(C(F)(F)F)nn2-c2ccc(S(N)(=O)=O)cc2)cc1 [CLX, celecoxib]	857 nM	2510 nM		
NS(=O)(=O)c1cc(Cl)c(Cl)c(S(N)(=O)=O)c1 [DCP]		1220 nM	5790 nM	
NS(=O)(=O)c1cc2c(cc1Cl)NCNS2(=O)=O [HCT]		3350 nM	6680 nM	
NS(=O)(=O)c1ccc(S(=O)(=O)Nc2cccc3c(Cl)c[nH]c23)cc1 [IND, indisulam]	216 nM	4240 nM		
CC(=O)N=c1sc(S(N)(=O)=O)nn1C [MZA, methazolamide]				Ki (CAS1 [2]; [5]): 421 nM
O=C1NS(=O)(=O)c2ccccc21 [SAC]		5280 nM	7070 nM	
CCN1CCCC1CNC(=O)c1cc(S(N)(=O)=O)ccc1OC (stereo not shown) [SLP, sulpiride]	670 nM	1720 nM		
NS(=O)(=O)c1ccc(N2CCCCS2(=O)=O)cc1 [SLT, sulthiame]	496 nM	3210 nM		
CC1(C)O[C@@H]2[C@@H](CO[C@@]3(COS(N)(=O)=O)OC(C)(C)O[C@@H]23)O1 [TPM, topiramate]	673 nM			Ki (CAS1 [2]; [5]): 414 nM
Cc1onc(-c2ccccc2)c1-c1ccc(S(N)(=O)=O)cc1 [VLX]		4430 nM	3730 nM	
NS(=O)(=O)Cc1noc2ccccc12 [ZNS]		1820 nM	1890 nM	
Nc1ccc(S(N)(=O)=O)cc1 [compound 2, sulfanilamide]				Ki (CAS1 [2]): 144 nM
Cc1ccc(S(N)(=O)=O)cc1 [compound 4, tosylamide]				Ki (CAS1 [2]; [5]): 47.1 nM
Cc1ccc(S(N)(=O)=O)cc1 [compound 4]			6900 nM	
Nc1ccc(S(N)(=O)=O)cc1F [compound 7, 3-fluorosulfanilamide]				Ki (CAS1 [2]; [5]): 43.2 nM
Nc1ccc(S(N)(=O)=O)cc1F [compound 7]			7360 nM	
Nc1ccc(S(N)(=O)=O)cc1Cl [compound 8, 3-chlorosulfanilamide]				Ki (CAS1 [2]; [5]): 79.6 nM
Nc1ccc(S(N)(=O)=O)cc1Cl [compound 8]			9120 nM	
Nc1ccc(S(N)(=O)=O)cc1Br [compound 9, bromosubstituted derivative 9]				Ki (CAS1 [2]; pH 8.3, 20 mM TRIS, 20 mM Na2SO4, CO2 1.7-17 mM, 15 min preincubation at room temperature, read-out: KI^a (nM) / CAS1^c / β): 580 nM
Nc1ccc(S(N)(=O)=O)cc1Br [compound 9]				Ki (CAS2 [4]; [6]): 12000 nM
Nc1nnc(S(N)(=O)=O)s1 [compound 13, 5-amino-1,3,4-thiadiazole-2-sulfonamide]	48.1 nM	8650 nM		
Cn1nc(S(N)(=O)=O)sc1=N [compound 14]				Ki (CAS2 [4]; [6]): 280 nM; Ki (CAS1 [3]; inhibitor): 7210 nM
NS(=O)(=O)c1ccc(CO)cc1 [compound 16, 4-hydroxymethyl-benzenesulfonamide]	92.5 nM	4520 nM		
